Measurements: patent US12024503B2, “Benzethers and anilines of pyrazolyl-amino-pyrimidinyl derivatives, and compositions and methods thereof” (LYNK PHARMACEUTICALS CO. LTD., priority 2019, dated 2024)

Tests used:
Format in all cases: biochemical
[1] = biological target: T1, JAK1 (Homo sapiens, UniProt P23458); experiment: JAK1 microfluidic kinase assay (Caliper EZ Reader II, FAM labeled peptide substrate); details: (5 nM), 1 mM ATP; Table 2; read-out: IC50 JAK1 (5 nM) (1 mM ATP)
T1 construct: purchased Carna Biosciences
T1 sequence (P23458 whole entry): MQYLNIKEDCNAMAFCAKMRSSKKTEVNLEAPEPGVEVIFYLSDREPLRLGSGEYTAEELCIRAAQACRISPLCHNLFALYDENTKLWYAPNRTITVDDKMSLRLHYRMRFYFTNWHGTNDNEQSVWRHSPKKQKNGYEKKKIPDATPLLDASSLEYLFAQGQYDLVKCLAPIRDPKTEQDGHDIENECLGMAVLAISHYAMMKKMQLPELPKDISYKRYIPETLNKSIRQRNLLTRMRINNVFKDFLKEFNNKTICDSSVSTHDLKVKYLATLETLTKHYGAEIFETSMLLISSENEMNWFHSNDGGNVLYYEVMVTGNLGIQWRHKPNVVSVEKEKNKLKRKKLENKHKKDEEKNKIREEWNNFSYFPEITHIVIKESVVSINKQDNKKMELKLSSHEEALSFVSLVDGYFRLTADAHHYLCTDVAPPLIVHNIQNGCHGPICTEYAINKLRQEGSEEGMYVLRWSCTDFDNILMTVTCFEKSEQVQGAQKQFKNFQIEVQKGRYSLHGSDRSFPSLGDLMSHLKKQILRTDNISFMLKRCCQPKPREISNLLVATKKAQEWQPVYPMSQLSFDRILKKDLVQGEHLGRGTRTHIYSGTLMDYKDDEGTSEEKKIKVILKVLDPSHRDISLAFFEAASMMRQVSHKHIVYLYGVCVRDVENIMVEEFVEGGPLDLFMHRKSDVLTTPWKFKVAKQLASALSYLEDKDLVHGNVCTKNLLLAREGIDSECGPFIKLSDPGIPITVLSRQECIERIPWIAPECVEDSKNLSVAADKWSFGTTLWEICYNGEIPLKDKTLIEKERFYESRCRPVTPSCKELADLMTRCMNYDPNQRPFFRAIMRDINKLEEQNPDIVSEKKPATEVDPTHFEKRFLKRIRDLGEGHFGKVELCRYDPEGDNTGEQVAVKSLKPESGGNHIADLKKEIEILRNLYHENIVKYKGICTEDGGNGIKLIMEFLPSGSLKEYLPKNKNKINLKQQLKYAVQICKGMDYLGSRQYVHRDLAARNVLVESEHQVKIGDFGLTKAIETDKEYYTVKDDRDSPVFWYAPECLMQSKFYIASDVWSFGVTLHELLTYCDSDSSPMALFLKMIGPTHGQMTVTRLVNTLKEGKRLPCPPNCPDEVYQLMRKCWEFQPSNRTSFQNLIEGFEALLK
Experimental: (§1) Compounds were tested against JAK1, JAK2, JAK2V617F and TYK2.
(§2) Assay Formats: JAK activity was determined in the reaction buffer 50 mM HEPES, 0.01% Brij35, 10 mMMgCl2, 2 mMDTT by a microfluidic assay. The phosphorylation of a FAM labeled peptide substrate was monitored in the Caliper EZ Reader II (Perkin Elmer). The assay condition for each batch of enzyme (Carna Biosciences) was optimized to obtain 10% conversion rate of peptide substrate.
(§3) The test compounds were dissolved in DMSO to a stock concentration of 10 mM. 3-fold serially diluted compounds with top concentration of 5 μM were pre-incubated with JAK1, JAK2, JAK2V617F or TYK2 for 10 min at ambient temperature. The final DMSO concentration of assay mixture was 1%. FAM labeled peptide substrate (final concentration […]) and ATP (1 mM concentration) were sequentially added to initiate the kinase reaction at 28° C. The reaction was stopped by adding 50 mMEDTA. The reaction time for JAK1, JAK2, JAK2V617F and TYK2 was 120 min, 20 min, 30 min and 10 min, respectively.
(§4) The well in the test plate without enzyme was defined as 100% inhibition. And the well without compound but with equivalent DMSO was defined as no inhibition. The percent inhibition was calculated by the following formula. % Inhibition=(Conversionmax−Conversionsample)/(Conversionmax−Conversionmin)*100Conversionmax means the conversion rate in the positive well without addition of compound Conversionmin means the conversion rate in the well without addition of enzyme Conversionsample means the conversion rate of test compounds
(§5) The dose-response (percent inhibition) curve was plotted and IC50 values were determined by GraphPad software.

[2] = biological target: T2, JAK2 (Homo sapiens, UniProt O60674); experiment: JAK2 microfluidic kinase assay (Caliper EZ Reader II, FAM labeled peptide substrate); details: (0.25 nM), 1 mM ATP; Table 2; read-out: IC50 JAK2 (0.25 nM) (1 mM ATP)
T2 construct: purchased Carna Biosciences
T2 sequence (O60674 whole entry): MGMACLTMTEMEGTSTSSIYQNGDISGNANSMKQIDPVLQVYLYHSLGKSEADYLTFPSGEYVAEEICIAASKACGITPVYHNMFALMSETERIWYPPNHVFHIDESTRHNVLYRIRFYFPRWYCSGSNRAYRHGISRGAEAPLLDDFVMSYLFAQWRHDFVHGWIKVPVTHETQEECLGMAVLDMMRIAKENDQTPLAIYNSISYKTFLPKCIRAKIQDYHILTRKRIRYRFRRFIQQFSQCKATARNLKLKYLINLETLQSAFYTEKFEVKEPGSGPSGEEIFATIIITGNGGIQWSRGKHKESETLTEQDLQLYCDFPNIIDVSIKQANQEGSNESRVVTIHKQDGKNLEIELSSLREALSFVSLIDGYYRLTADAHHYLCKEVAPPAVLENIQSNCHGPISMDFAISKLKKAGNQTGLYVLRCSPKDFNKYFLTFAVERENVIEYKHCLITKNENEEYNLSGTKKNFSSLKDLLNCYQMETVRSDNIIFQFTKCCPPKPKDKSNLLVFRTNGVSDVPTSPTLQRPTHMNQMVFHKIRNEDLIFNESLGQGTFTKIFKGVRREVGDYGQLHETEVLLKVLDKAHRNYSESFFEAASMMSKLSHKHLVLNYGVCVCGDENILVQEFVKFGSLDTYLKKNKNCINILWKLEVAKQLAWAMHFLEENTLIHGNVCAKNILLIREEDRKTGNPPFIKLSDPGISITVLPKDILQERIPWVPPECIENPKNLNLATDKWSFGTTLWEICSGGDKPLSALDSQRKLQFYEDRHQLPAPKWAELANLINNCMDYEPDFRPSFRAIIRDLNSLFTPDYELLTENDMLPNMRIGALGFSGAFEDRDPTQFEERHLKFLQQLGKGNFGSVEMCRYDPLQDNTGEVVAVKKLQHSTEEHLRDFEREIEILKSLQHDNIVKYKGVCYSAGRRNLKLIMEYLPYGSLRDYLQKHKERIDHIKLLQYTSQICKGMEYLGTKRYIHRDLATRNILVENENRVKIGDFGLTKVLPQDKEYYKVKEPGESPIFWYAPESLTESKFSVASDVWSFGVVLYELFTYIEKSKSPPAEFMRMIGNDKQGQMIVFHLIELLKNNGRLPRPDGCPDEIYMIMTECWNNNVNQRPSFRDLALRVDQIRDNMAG
Experimental: as §1, §2, §3, §4, §5

[3] = biological target: T3, JAK2V617F (Homo sapiens, UniProt O60674, V617F); experiment: JAK2V617F microfluidic kinase assay (Caliper EZ Reader II, FAM labeled peptide substrate); details: (2.5 nM), 1 mM ATP; Table 2; read-out: IC50 J2V617F (2.5 nM) (1 mM ATP)
T3 construct: purchased Carna Biosciences
T3 sequence (O60674 whole entry V617F): as the sequence (O60674 whole entry) above, with V617F counted along it
Experimental: as §1, §2, §3, §4, §5

[4] = biological target: T4, TYK2 (Homo sapiens, UniProt P29597); experiment: TYK2 microfluidic kinase assay (Caliper EZ Reader II, FAM labeled peptide substrate); details: (2.5 nM), 1 mM ATP; Table 2; read-out: IC50 TYK2 (2.5 nM) (1 mM ATP)
T4 construct: purchased Carna Biosciences
T4 sequence (P29597 whole entry): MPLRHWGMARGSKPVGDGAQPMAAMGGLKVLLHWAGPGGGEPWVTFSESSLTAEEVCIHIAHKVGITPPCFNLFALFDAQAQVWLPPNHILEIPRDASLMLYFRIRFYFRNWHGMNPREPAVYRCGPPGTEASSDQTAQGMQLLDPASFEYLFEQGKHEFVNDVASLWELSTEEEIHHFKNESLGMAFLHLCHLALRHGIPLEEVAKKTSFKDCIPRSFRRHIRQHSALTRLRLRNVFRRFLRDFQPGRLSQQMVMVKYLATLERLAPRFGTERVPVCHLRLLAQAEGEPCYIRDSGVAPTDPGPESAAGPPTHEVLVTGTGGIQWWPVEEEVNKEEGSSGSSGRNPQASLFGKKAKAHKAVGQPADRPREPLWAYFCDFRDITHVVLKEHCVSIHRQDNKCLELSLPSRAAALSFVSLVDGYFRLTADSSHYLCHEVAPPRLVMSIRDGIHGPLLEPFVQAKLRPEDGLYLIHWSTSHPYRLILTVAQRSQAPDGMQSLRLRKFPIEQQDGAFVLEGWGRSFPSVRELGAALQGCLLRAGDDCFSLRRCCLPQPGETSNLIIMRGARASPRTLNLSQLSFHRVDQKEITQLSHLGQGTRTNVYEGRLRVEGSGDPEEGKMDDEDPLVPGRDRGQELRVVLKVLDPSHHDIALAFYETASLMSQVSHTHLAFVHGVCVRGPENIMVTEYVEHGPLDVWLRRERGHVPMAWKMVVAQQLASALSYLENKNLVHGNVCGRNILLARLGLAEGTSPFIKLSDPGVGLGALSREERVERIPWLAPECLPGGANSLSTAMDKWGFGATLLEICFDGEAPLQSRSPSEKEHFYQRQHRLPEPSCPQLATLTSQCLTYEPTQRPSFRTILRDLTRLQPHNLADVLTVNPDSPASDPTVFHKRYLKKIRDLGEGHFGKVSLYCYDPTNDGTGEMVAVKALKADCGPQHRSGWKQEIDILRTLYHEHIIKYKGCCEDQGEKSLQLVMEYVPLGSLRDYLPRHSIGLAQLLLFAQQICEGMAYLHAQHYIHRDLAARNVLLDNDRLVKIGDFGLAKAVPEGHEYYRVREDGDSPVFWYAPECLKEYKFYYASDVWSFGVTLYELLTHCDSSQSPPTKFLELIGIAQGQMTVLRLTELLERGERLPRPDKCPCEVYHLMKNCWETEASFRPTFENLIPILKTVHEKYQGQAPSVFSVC
Experimental: as §1, §2, §3, §4, §5

IC50 [1] | IC50 [2] | IC50 [3] | IC50 [4] | SMILES
4.8 nM | 0.27 nM | 3.18 nM | 12 nM | Cc1cnc(Nc2cnn(C3CC3)c2)nc1-c1ccc(OCC(C)(C)C#N)cc1 [Example 1, 3-(4-(2-((1-cyclopropyl-1H-pyrazol-4-yl)amino)-5-methylpyrimidin-4-yl)phenoxy)-2,2-dimethylpropanenitrile]
< 2.5 nM | 0.425 nM | < 1.25 nM | < 1.25 nM | Cc1cnc(Nc2cnn(C3CC3)c2)nc1-c1ccc(OCC(C)(C)C#N)c(F)c1 [Example 4, 3-(4-(2-((1-cyclopropyl-1H-pyrazol-4-yl)amino)-5-methylpyrimidin-4-yl)-2-fluorophenoxy)-2,2-dimethylpropanenitrile]
7.42 nM |  | < 1.25 nM | < 1.25 nM | Cc1cnc(Nc2cnn(C3CCOCC3)c2)nc1-c1ccc(OCC2(C#N)CC2)c(F)c1 [Example 6, 1-((2-fluoro-4-(5-methyl-2-((1-(tetrahydro-2H-pyran-4-yl)-1H-pyrazol-4-yl)amino)pyrimidin-4-yl)phenoxy)methyl)cyclopropane-carbonitrile]
< 2.5 nM |  | < 1.25 nM | < 1.25 nM | Cc1cnc(Nc2cnn(C3CCOCC3)c2)nc1-c1ccc(OCC(C)(C)C#N)c(F)c1 [Example 7, 3-(2-fluoro-4-(5-methyl-2-((1-(tetrahydro-2H-pyran-4-yl)-1H-pyrazol-4-yl)amino)pyrimidin-4-yl)phenoxy)-2,2-dimethylpropanenitrile]
65.1 nM |  | 138 nM | 218 nM | Cc1cnc(Nc2cnn(C3CC3)c2)nc1-c1ccc(OCC2(C#N)CC2)nc1 [Example 11, 1-(((5-(2-((l-cyclopropyl-1H-pyrazol-4-yl)amino)-5-methylpyrimidin-4-yl)pyridin-2-yl)oxy)methyl)cyclopropanecarbonitrile]
19.6 nM | 32.3 nM |  | 64.7 nM | Cc1cnc(Nc2cnn(C)c2)nc1-c1ccc(OCCC#N)c(F)c1 [Example 12, 3-(2-fluoro-4-(5-methyl-2-((1-methyl-1H-pyrazol-4-yl)amino)pyrimidin-4-yl)phenoxy)propanenitrile]
202 nM |  | 163 nM | 351 nM | Cc1cnc(Nc2cnn(C3CCOCC3)c2)nc1-c1ccc(OCC2(C#N)CC2)nc1 [Example 14, 1-(((5-(5-methyl-2-((1-(tetrahydro-2H-pyran-4-yl)-1H-pyrazol-4-yl)amino)pyrimidin-4-yl)pyridin-2-yl)oxy)methyl)cyclopropanecarbonitrile]
< 2.5 nM | < 0.25 nM | < 1.25 nM | < 1.25 nM | Cc1cnc(Nc2cnn(C3CCN(C)CC3)c2)nc1-c1ccc(OCC(C)(C)C#N)cc1 [Example 17, 2,2-dimethyl-3-(4-(5-methyl-2-((1-(1-methylpiperidin-4-yl)-1H-pyrazol-4-yl)amino)pyrimidin-4-yl)phenoxy)propanenitrile]
< 2.5 nM | 0.427 nM |  | < 1.25 nM | Cc1cnc(Nc2cnn(C3CCN(C)CC3)c2)nc1-c1ccc(OCC(C)(C)C#N)c(F)c1 [Example 18, 3-(2-fluoro-4-(5-methyl-2-((1-(1-methylpiperidin-4-yl)-1H-pyrazol-4-yl)amino)pyrimidin-4-yl)phenoxy)-2,2-dimethylpropanenitrile]
< 2.5 nM | < 0.25 nM | < 1.25 nM | < 1.25 nM | COCCn1cc(Nc2ncc(C)c(-c3ccc(OCC(C)(C)C#N)c(F)c3)n2)cn1 [Example 19, 3-(2-fluoro-4-(2-((1-(2-methoxyethyl)-1H-pyrazol-4-yl)amino)-5-methylpyrimidin-4-yl)phenoxy)-2,2-dimethylpropanenitrile]
< 2.5 nM | 0.251 nM |  | < 1.25 nM | Cc1cnc(Nc2cnn(C3CCN(C)CC3)c2)nc1-c1ccc(OCC2(C#N)CC2)c(F)c1 [Example 20, 1-((2-fluoro-4-(5-methyl-2-((1-(1-methylpiperidin-4-yl)-1H-pyrazol-4-yl)amino)pyrimidin-4-yl)phenoxy)methyl)cyclopropane-carbonitrile]
7.31 nM | < 0.25 nM | < 1.25 nM | < 1.25 nM | COCCn1cc(Nc2ncc(C)c(-c3ccc(OCC4(C#N)CC4)c(F)c3)n2)cn1 [Example 21, 1-((2-fluoro-4-(2-((1-(2-methoxyethyl)-1H-pyrazol-4-yl)amino)-5-methylpyrimidin-4-yl)phenoxy)methyl)cyclopropane-carbonitrile]
14.1 nM | 3.4 nM |  | 41.4 nM | Cn1cc(Nc2ncc(Cl)c(-c3ccc(OCC(C)(C)C#N)cc3)n2)cn1 [Example 29, 3-(4-(5-chloro-2-((1-methyl-1H-pyrazol-4-yl)amino)pyrimidin-4-yl)phenoxy)-2,2-dimethylpropanenitrile]
28.9 nM | 0.9 nM |  | 106 nM | CC(C)(C#N)COc1ccc(-c2nc(Nc3cnn(C4CC4)c3)ncc2Cl)cc1 [Example 32, 3-(4-(5-chloro-2-((1-cyclopropyl-1H-pyrazol-4-yl)amino)pyrimidin-4-yl)phenoxy)-2,2-dimethylpropanenitrile]
10.8 nM | < 0.25 nM | 6.16 nM | 30 nM | Cc1cnc(Nc2cnn(C3CC3)c2)nc1-c1ccc(N(C)CC2(C#N)CC2)c(F)c1 [Example 33, 1-(((4-(2-((1-cyclopropyl-1H-pyrazol-4-yl)amino)-5-methylpyrimidin-4-yl)-2-fluorophenyl)(methyl)amino)methyl) cyclopropanecarbonitrile]
14.5 nM | 0.741 nM |  | < 1.25 nM | Cc1cnc(Nc2cnn(C3CC3)c2)nc1-c1ccc(NCC(C)(C)C#N)c(F)c1 [Example 37, 3-((4-(2-((1-cyclopropyl-1H-pyrazol-4-yl)amino)-5-methylpyrimidin-4-yl)-2-fluorophenyl)amino)-2,2-dimethylpropanenitrile]
7.49 nM | 1.09 nM |  | 2.62 nM | Cc1cnc(Nc2cnn(C)c2)nc1-c1ccc(OCC(C)(C)C#N)cc1 [Example 38, 2,2-dimethyl-3-(4-(5-methyl-2-((1-methyl-1H-pyrazol-4-yl)amino)pyrimidin-4-yl)phenoxy)propanenitrile]
< 2.5 nM | 0.377 nM |  | < 1.25 nM | Cc1cnc(Nc2cnn(C3CCNCC3)c2)nc1-c1ccc(OCC(C)(C)C#N)c(F)c1 [Example 39, 3-(2-fluoro-4-(5-methyl-2-((1-(piperidin-4-yl)-1H-pyrazol-4-yl)amino)pyrimidin-4-yl)phenoxy)-2,2-dimethylpropanenitrile]
< 2.5 nM | 0.654 nM |  | 1.78 nM | Cc1cnc(Nc2cnn(C(C)C(F)(F)F)c2)nc1-c1ccc(OCC(C)(C)C#N)c(F)c1 (stereo not drawn) [Example 40, 3-(2-fluoro-4-(5-methyl-2-((1-(1,1,1-trifluoropropan-2-yl)-1H-pyrazol-4-yl)amino)pyrimidin-4-yl)phenoxy)-2,2-dimethylpropanenitrile]
19.6 nM | 32.3 nM |  | 64.7 nM | Cc1cnc(Nc2cnn(C)c2)nc1-c1ccc(OCCC#N)cc1 [Example 41, 3-(4-(5-methyl-2-((1-methyl-1H-pyrazol-4-yl)amino)pyrimidin-4-yl)phenoxy)propanenitrile]
19.2 nM | 27.4 nM |  | 102 nM | Cc1cnc(Nc2cnn(C3CC3)c2)nc1-c1ccc(NCC2(C#N)CC2)cc1 [Example 42, 1-(((4-(2-((1-cyclopropyl-1H-pyrazol-4-yl)amino)-5-methylpyrimidin-4-yl)phenyl)amino)methyl)cyclopropane carbonitrile]
26.8 nM | 3.12 nM |  | 98.4 nM | Cc1cnc(Nc2cnn(C3CCN(C)CC3)c2)nc1-c1ccc(NCC2(C#N)CC2)cc1 [Example 43, 1-(((4-(5-methyl-2-((1-(1-methylpiperidin-4-yl)-1H-pyrazol-4-yl)amino)pyrimidin-4-yl)phenyl)amino)methyl)cyclopropane carbonitrile]
35.3 nM | 1.46 nM |  | 173 nM | N#CC1(CNc2ccc(-c3nc(Nc4cnn(C5CCNCC5)c4)ncc3Cl)cc2)CC1 [Example 44, 1-(((4-(5-chloro-2-((1-(piperidin-4-yl)-1H-pyrazol-4-yl)amino)pyrimidin-4-yl)phenyl)amino)methyl)cyclopropane carbonitrile]
